Experimental data taken from patent publication US6935334B2, “Enhancing therapeutic effectiveness of nitric oxide inhalation” (The General Hospital Corporation, priority 2000, dated 2005).

What was measured:
[1] = system: hypoxic pulmonary vasoconstriction (HPV) in mice; assay: Redistribution of pulmonary blood flow (QLPA/QPA) after left mainstem bronchus occlusion (LMBO), murine HPV model; type: in vivo, mouse
Method: Group 3: endotoxin-treated+L-NIL. SV129/B6F1 wild-type mice (n=5) were injected intraperitoneally with 10 mg/kg E. coli 011B4 endotoxin dissolved in 0.2 mL saline. Three hours after the endotoxin challenge, mice were treated with L-NIL 5 mg/kg intraperitoneally. Studies were performed 22 hours after the endotoxin challenge. In additional SV129/B6F1 mice with (n=5) and without (n=4) a prior challenge of endotoxin (22 hours earlier), the acute response to an intravenous bolus of 5 mg/kg L-NIL administered during LMBO, was studied.
Group 4: prolonged exposure to 4 or 40 ppm NO. Saline-treated SV129 wild-type mice (n=5) and NOS2-deficient mice (n=5) breathed 40 ppm NO in air for 22 hours and were studied 1 hour after discontinuation of NO inhalation. SV129 wild-type mice (n=5) and NOS2-deficient mice (n=5) breathed 40 ppm NO in air for 22 hours after challenge with 10 mg/kg endotoxin intraperitoneally and were studied 1 hour after discontinuation of NO inhalation. Additional NOS2-deficient mice (n=4) breathed 4 ppm of NO in air for 22 hours after challenge with 10 mg/kg endotoxin intraperitoneally and were studied 1 hour after discontinuation of NO inhalation.
Experimental preparation. Mice were anesthetized by intraperitoneal injection of ketamine (0.1 mg/g body weight [bw]). Tracheostomy and arterial catheterization were performed as described previously (Steudel et al., 1997, Circ. Res. 81:34-41). A custom-made endotracheal tube (22G Angiocath; Becton Dickinson Healthcare Systems, Sandy, Utah, USA), combined with a 2 French Fogarty arterial embolization catheter (Baxter Healthcare Corp., Irvine, Calif., USA) was inserted into the trachea, with the balloon tip of the Fogarty catheter initially remaining in the trachea. Volume-controlled ventilation was initiated at a respiratory rate of 110-120 breaths per minute, at FiO2 1.0, a peak inspiratory pressure of 13 cm H2O, and a positive end-expiratory pressure level of 2-3 cm H2O. A right parasternal thoracotomy was performed, and a small-vessel ultrasonic flow probe (1RB; Transonic Instruments, Ithaca, N.Y.) was placed around the right pulmonary artery and fixed in position using a micromanipulator (X-tra Hand; TechniTool, Plymouth, Pa.). A 4-0 silk suture was positioned around the left main pulmonary artery to allow transient vascular occlusion. A pulmonary artery catheter (PE10) was inserted into the main pulmonary artery by direct puncture. In other experiments, a lower thoracic aortic flow probe was placed as reported previously (Steudel et al., supra).
Blood flow and pressure measurements. Mean systemic arterial pressure (PSA), mean pulmonary artery pressure (PPA), and in some studies PLA, were continuously monitored using biomedical amplifiers (Hewlett Packard 8805C, Palo Alto, Calif.; Siemens Sirecust 960, Danvers, Mass.). Mean lower thoracic aortic flow (QLTAF) and right pulmonary artery flow (QRPA) were measured with small vessel flow probes connected to a flowmeter (T106; Transonic Instruments). In some experiments, left ventricular end-diastolic pressure was measured with a 1.4 Fr. Millar catheter. The catheter was advanced through the right carotid artery into the left ventricle. […] All monitoring equipment was calibrated before each experiment.
Differential measurement of left and right pulmonary artery flow. To assess the contribution of QRPA and left pulmonary artery flow (QLPA) to total pulmonary artery flow (QPA), transient occlusion (90 seconds) of the left pulmonary artery (QLPA) was performed. QRPA during acute left pulmonary artery occlusion was considered to be QPA (i.e., cardiac output) and correlated closely (r2=0.88; y=0.95x+0.38; n=9) with QLTAF. QLPA was calculated as the difference between QRPA during left pulmonary artery occlusion (QPA) and QRPA with a patent left pulmonary artery (QLPA=QPA−QRPA). Absolute values of respective flows were recorded, and the fractional distribution of flow to the right and left lungs (QRPA/QPA and QLPA/QPA) was calculated. […]

NOS2 = assay: Pulmonary cGMP levels after endotoxin challenge; type: in vivo, mouse; conditions: wild-type mice 7 hours after endotoxin challenge; L-NIL 5 mg/kg intraperitoneally; data not shown
[2] = saline-treated wild-type mice, L-NIL 5 mg/kg intravenously after LMBO

## CC(=N)NCCCC[C@H](N)C(=O)O [L-NIL]
[1]; endotoxin-challenged (10 mg/kg i.p.) wild-type mice treated with L-NIL 5 mg/kg intraperitoneally 3 hours later, studied 22 hours after endotoxin
  reduction of QLPA/QPA after LMBO: 53±10%
[1]; [2]
  all other hemodynamic parameters after L-NIL injection: did not change
  reduction of QLPA/QPA during LMBO after acute L-NIL: 56±3%
[1]; wild-type mice treated with endotoxin 22 hours earlier, L-NIL 5 mg/kg intravenously after LMBO
  reduction of QLPA/QPA during LMBO after acute L-NIL: 24±18%
NOS2
  increase in pulmonary cGMP levels: sufficient to prevent the increase in pulmonary cGMP levels
